Source: patent US4081433A, “D-Nle^4 -somatostatin and analogues thereof” (American Home Products Corporation, priority 1977, dated 1978)
Bridge positions count the residues as written; N and C are the ends. Square brackets hold non-standard residues; d marks the D form. Peptide text beside a SMILES is read from it. dNle = CCCC[C@@H](N)C(=O)O

System: growth hormone
Assay: Arginine-stimulated growth hormone secretion in Nembutal-anaesthetised rats
Type: in vivo
Details: albino male rats, 1 mg/kg subcutaneous
Procedure: The activity of the product of the preceding preparatory example, (D-Nle^4)Somatostatin, was determined by the following procedure:
Albino male rats were administered Nembutal intraperitoneally at a dose of 50 milligrams per kilogram. Fifteen minutes later a subcutaneous injection of the test compound or physiological saline was administered. Ten minutes later 0.5 milliliters of arginine (300 millligrams per milliliter, pH 7.2) is injected into the heart. Five minutes after receipt of the arginine the rats are decapitated and blood is collected into trasylol-EDTA.

CCCC[C@H]1NC(=O)[C@@H](NC(=O)CNC(=O)[C@H](C)N)CSSC[C@@H](C(=O)O)NC(=O)[C@H](CO)NC(=O)[C@H]([C@@H](C)O)NC(=O)[C@H](Cc2ccccc2)NC(=O)[C@H]([C@@H](C)O)NC(=O)[C@H](CCCCN)NC(=O)[C@H](Cc2c[nH]c3ccccc23)NC(=O)[C@H](Cc2ccccc2)NC(=O)[C@H](Cc2ccccc2)NC(=O)[C@H](CC(N)=O)NC1=O [(D-Nle^4)Somatostatin, L-Alanyl-glycyl-L-cysteinyl-D-norleucyl-L-asparaginyl-L-phenylalanyl-L-phenylalanyl-L-tryptophyl-L-lysyl-L-threonyl-L-phenylalanyl-L-threonyl-L-seryl- L-cysteine cyclic (1.revreaction.14) disulfide] (H-AGC[dNle]NFFWKTFTSC-OH; disulfide 3-14)
reducing secretion of growth hormone (in words): effective agent for reducing secretion of growth hormone | growth hormone in blood (arginine injected 10 min later, blood 5 min after arginine, control 208±52 ng/ml, p<0.05): 83 ± 23 ng/mL
